pKi: −log10 of the molar value.
Assays:
Mus musculus [1] = assay: Inhibition of MK-801 induced hyperactivity in po dosed Chinese Kun Ming mouse administered for 60 mins followed by MK-801 challenge and measured for 90 mins; format: functional
[2] = Therapeutic index, ratio of ED50 for induction of catalepsy in po dosed Chinese Kun Ming mouse to ED50 for inhibition of apomorphine-induced climbing behavior in po dosed Chinese Kun Ming mouse; format: organism-based; conditions: in vivo, read-out: Ratio ED50
[3] = biological target: T1, 5-hydroxytryptamine receptor 1A (Rattus norvegicus, UniProt P19327); assay: Displacement of [3H]8-OH-DPAT from 5-HT1A receptor in Sprague-Dawley rat cerebral cortex incubated for 30 mins by liquid scintillation counting analysis
T1 sequence (P19327 whole entry): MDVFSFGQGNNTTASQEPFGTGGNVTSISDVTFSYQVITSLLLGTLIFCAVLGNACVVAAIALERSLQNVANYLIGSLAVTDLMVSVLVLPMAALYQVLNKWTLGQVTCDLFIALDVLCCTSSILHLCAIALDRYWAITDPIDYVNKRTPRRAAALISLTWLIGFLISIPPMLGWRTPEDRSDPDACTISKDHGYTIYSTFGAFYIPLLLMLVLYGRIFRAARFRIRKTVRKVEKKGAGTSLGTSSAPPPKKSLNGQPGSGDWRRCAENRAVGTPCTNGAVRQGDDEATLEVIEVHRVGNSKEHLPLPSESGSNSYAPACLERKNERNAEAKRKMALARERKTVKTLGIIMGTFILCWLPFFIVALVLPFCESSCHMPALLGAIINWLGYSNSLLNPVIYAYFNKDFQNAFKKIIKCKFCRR

[4] = biological target: 5-hydroxytryptamine receptor 6 (Homo sapiens, UniProt P50406); assay: Displacement of [3H]lysergic acid diethylamide from human recombinant 5-HT6 receptor expressed in CHO cell membranes for 30 mins by liquid scintillation counting analysis
[5] = biological target: 5-hydroxytryptamine receptor 2A (Rattus norvegicus, UniProt P14842); assay: Displacement of [3H] ketanserin from 5-HT2A receptor in Sprague-Dawley rat cerebral cortex incubated for 30 mins by liquid scintillation counting analysis
[6] = biological target: T2, Adrenergic receptor alpha-1 (Rattus norvegicus, UniProt P15823+P23944+P43140); assay: Displacement of [3H]prazosin from adrenergic alpha1 receptor in Sprague-Dawley rat cerebral cortex incubated for 60 mins by liquid scintillation counting analysis
T2 sequence (P15823 whole entry): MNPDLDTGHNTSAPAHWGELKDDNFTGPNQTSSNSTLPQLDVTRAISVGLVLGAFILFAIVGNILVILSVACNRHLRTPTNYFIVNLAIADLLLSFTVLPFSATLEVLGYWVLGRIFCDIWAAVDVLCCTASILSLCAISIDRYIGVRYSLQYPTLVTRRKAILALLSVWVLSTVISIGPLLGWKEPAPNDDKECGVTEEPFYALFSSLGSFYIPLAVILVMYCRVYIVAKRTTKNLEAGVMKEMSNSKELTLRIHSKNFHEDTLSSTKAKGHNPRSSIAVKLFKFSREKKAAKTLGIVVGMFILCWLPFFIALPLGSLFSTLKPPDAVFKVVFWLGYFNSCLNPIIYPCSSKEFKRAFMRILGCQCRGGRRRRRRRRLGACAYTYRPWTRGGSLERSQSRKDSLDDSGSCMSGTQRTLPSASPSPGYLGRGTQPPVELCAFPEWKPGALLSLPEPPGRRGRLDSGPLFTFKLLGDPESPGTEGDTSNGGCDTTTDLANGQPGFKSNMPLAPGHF
T2 sequence (P23944 whole entry): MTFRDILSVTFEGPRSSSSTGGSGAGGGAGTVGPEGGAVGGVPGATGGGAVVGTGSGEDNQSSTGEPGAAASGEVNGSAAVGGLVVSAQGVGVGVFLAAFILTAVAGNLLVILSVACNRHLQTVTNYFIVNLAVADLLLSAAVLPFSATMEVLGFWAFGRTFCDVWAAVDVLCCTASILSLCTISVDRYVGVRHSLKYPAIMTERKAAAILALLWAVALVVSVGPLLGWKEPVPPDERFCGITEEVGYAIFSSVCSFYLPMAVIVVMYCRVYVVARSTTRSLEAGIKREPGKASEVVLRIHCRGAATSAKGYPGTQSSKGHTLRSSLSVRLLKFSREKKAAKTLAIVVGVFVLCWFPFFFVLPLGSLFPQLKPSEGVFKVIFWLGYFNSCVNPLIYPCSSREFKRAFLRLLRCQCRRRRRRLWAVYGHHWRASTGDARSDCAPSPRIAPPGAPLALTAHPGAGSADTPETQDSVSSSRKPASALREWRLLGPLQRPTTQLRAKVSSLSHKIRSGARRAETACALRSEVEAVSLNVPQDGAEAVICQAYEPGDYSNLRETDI
T2 sequence (P43140 whole entry): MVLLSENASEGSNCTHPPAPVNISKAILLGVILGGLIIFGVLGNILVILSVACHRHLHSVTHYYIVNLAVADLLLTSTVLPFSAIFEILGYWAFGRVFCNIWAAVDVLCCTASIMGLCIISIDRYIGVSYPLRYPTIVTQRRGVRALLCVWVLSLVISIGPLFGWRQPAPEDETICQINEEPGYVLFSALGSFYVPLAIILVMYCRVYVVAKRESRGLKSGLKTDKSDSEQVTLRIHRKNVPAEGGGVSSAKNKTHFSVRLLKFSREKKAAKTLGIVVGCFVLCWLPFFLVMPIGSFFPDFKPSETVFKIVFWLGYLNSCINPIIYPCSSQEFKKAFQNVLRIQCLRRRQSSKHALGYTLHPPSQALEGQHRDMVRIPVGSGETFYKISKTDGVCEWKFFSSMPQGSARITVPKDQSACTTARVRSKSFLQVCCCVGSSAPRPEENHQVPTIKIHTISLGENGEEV

D(2) dopamine receptor = D(2) dopamine receptor (Rattus norvegicus, UniProt P61169); assay: Displacement of [3H]spiperone from dopamine D2 receptor in Sprague-Dawley rat striatum incubated for 30 mins by liquid scintillation counting analysis
[7] = biological target: T3, 5-hydroxytryptamine receptor 2C (Rattus norvegicus, UniProt P08909); assay: Displacement of [3H]mesulergine from 5-HT2C receptor in Sprague-Dawley rat cerebral cortex incubated for 15 mins in presence of spiperone by liquid scintillation counting analysis
T3 sequence (P08909 whole entry): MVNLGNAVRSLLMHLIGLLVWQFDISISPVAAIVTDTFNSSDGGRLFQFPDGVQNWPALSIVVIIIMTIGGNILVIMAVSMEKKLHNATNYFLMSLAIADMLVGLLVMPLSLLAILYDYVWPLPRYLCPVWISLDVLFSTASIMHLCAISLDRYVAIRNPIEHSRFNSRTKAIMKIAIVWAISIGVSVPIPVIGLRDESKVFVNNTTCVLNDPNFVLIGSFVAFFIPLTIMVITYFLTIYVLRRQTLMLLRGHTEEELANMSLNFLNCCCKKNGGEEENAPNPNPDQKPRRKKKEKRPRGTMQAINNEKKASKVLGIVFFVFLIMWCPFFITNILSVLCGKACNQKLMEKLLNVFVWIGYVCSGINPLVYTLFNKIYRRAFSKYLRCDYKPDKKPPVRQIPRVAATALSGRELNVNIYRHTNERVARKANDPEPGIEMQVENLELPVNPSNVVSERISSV

Histamine H1 receptor = Histamine H1 receptor (Cavia porcellus, UniProt P31389); assay: Displacement of [3H]mepyramine from histamine H1 receptor in guinea pig cerebellum incubated for 60 mins by liquid scintillation counting analysis
[8] = Therapeutic index, ratio of ED50 for induction of catalepsy in po dosed Chinese Kun Ming mouse to ED50 for inhibition of MK-801 induced hyperactivity in po dosed Chinese Kun Ming mouse; format: organism-based; conditions: in vivo, read-out: Ratio ED50
[9] = Induction of catalepsy in po dosed Chinese Kun Ming mouse assessed as increase in unwanted extrapyramidal motor disturbances measured for 60 seconds; format: organism-based; conditions: in vivo, 1 min
[10] = Toxicity in po dosed Chinese Kun Ming mouse assessed as lethality after 24 hrs; format: organism-based; conditions: in vivo
Mus musculus [11] = assay: Inhibition of apomorphine-induced climbing behavior in po dosed Chinese Kun Ming mouse administered for 30 mins followed by apomorphine challenge and measured for 10 to 30 mins; format: functional

Sequence of D(2) dopamine receptor (P61169 whole entry): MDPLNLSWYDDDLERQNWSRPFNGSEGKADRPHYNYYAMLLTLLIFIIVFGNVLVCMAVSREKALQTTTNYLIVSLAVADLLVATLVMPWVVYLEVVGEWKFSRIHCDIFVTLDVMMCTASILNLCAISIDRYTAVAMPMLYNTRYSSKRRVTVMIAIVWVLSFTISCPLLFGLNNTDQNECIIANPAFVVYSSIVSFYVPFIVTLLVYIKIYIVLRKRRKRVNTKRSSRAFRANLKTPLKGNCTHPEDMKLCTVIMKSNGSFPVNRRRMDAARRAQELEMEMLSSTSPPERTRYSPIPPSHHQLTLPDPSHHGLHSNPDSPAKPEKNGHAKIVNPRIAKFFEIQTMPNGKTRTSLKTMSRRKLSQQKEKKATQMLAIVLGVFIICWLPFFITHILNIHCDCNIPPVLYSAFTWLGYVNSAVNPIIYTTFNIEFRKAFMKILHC
Sequence of Histamine H1 receptor (P31389 whole entry): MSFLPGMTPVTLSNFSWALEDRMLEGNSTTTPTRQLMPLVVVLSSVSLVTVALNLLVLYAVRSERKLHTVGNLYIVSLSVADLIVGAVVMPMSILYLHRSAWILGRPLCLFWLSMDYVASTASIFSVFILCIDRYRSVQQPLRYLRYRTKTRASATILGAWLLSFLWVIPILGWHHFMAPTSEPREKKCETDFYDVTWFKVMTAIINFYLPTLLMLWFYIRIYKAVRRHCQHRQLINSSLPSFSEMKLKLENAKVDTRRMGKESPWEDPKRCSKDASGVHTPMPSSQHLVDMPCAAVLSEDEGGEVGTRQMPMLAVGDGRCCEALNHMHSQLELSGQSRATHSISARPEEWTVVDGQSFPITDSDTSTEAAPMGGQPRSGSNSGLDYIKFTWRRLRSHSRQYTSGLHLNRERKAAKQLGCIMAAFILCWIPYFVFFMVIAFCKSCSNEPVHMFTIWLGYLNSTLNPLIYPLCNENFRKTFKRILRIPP
Sequence of 5-hydroxytryptamine receptor 6 (P50406 whole entry): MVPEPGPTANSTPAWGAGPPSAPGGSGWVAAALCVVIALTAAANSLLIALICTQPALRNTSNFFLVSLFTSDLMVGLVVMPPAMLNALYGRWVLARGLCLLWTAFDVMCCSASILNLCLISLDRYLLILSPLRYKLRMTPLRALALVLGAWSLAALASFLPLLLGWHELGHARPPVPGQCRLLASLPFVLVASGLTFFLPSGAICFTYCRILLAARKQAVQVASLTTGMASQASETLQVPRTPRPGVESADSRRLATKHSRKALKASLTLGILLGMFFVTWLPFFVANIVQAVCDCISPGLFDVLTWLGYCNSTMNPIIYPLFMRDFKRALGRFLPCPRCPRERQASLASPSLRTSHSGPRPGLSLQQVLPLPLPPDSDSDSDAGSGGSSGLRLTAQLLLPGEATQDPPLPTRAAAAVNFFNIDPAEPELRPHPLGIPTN
Sequence of 5-hydroxytryptamine receptor 2A (P14842 whole entry): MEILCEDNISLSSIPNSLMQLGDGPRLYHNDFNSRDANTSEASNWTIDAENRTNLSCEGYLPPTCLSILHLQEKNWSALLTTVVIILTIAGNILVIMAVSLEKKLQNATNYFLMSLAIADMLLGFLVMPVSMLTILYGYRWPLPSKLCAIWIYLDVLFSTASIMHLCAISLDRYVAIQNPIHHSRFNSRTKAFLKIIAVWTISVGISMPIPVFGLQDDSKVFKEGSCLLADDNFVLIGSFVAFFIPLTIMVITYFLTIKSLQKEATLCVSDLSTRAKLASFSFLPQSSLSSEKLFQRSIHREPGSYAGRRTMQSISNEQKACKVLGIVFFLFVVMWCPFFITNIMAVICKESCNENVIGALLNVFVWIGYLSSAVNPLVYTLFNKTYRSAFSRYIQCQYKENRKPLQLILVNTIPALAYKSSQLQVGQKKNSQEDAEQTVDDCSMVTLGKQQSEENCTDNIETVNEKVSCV

| pKi [3] | pKi [4] | pKi [5] | Ki [6] [nM] | pKi (D(2) dopamine receptor) | pKi [7] | pKi (Histamine H1 receptor) | SMILES | ED50 (Mus musculus [1]) [mg/kg] | selectivity ratio [2] | selectivity ratio [8] | ED50 [9] [mg/kg] | LD50 at 24 h [10] [mg/kg] | ED50 (Mus musculus [11]) [mg/kg] |
| --- | --- | --- | --- | --- | --- | --- | --- | --- | --- | --- | --- | --- | --- |
| – | 7.93 | 9.15 | 147 | 8.57 | 9.00 | 6.73 | O=c1ccc(OCCCN2CCC(c3noc4cc(F)ccc34)CC2)nn1-c1cc(Cl)ccc1Cl | – | – | – | – | – | – |
| 8.05 | 8.42 | 7.95 | 337 | 8.21 | 8.04 | 6.94 | O=c1ccc(OCCCN2CCC(c3noc4cc(F)ccc34)CC2)nn1-c1cc(F)ccc1F | – | – | – | – | – | – |
| 8.03 | 6.95 | 9.30 | 118 | 9.70 | 6.75 | 7.78 | O=c1ccc(OCCCN2CCC(c3noc4cc(F)ccc34)CC2)nn1-c1cccc(Cl)c1Cl | – | – | – | – | – | – |

Continued, compound first:

| SMILES | pKi [3] | pKi [4] | pKi [5] | Ki [6] [nM] | pKi (D(2) dopamine receptor) | pKi [7] | pKi (Histamine H1 receptor) | ED50 (Mus musculus [1]) [mg/kg] | selectivity ratio [2] | selectivity ratio [8] | ED50 [9] [mg/kg] | LD50 at 24 h [10] [mg/kg] | ED50 (Mus musculus [11]) [mg/kg] |
| --- | --- | --- | --- | --- | --- | --- | --- | --- | --- | --- | --- | --- | --- |
| O=c1ccc(OCCCN2CCC(c3noc4cc(F)ccc34)CC2)nn1-c1c(F)cccc1F | 8.23 | 9.30 | 9.52 | 1098 | 9.30 | 5.80 | 5.70 | 0.3 | 50.7 | 79.4 | 23.82 | > 2000 | 0.47 |
| O=C(CCCN1CCC(O)(c2ccc(Cl)cc2)CC1)c1ccc(F)cc1 [HALOPERIDOL] | – | – | – | – | – | – | – | 0.19 | 3.11 | 2.95 | 0.56 | – | 0.18 |
| Cc1nc2n(c(=O)c1CCN1CCC(c3noc4cc(F)ccc34)CC1)CCCC2 [RISPERIDONE] | – | – | – | – | – | – | – | 0.018 | – | – | 0.38 | – | 0.02 |

Source: ChEMBL document CHEMBL3875166, “Synthesis and biological evaluation of new 6-hydroxypyridazinone benzisoxazoles: Potential multi-receptor-targeting atypical antipsychotics” (Eur J Med Chem, 2016)
